Experimental data taken from US20260232815A1, “COPOLYMER-DRUG CONJUGATE FOR TREATMENT OF TUMOURS” (Danmarks Tekniske Universitet, priority 2023, published 2026).

Test system: Murine colon carcinoma CT26
Experiment: Antitumour efficacy after intratumoral treatment of CT26 tumours
Format: in vivo, Balb/cJRj mice
Procedure: Healthy Balb/cJRj mice were injected with 100 μL of Murine colon carcinoma CT26 cancer cells (3×105) in RPMI media subcutaneously on the right flank. Mice bearing tumors with volumes between 50 and 200 mm^3 were randomized and rearranged into new cages by blocking for initial tumor volume, and each cage received one of the four treatments described in Table 2 administered intratumorally (50 μL). A total of 3 injections, separated by 7 days each, were made for each treatment.
83 days after the first tumor inoculation, the surviving mice were re-challenged by a second inoculation of CT26 cancers cells (same dose) on the left flank of the mice along with a control group getting their first inoculation. The mice were monitored for weight and their tumors were measured using an electronic caliper twice a week, and fluorescence imaging was performed at regular intervals for all formulations containing Cy7 moieties. […] Humane endpoints included general signs of misthriving mice, significant weight loss (15% of initial weight or 10% overnight weight loss), or presence of tumor wounds larger than 8 mm.

CCOCc1nc2c(N)nc3ccccc3c2n1CCCN [TLR7/8a, 4-Amino-2-(ethoxymethyl)-1H-imidazo[4,5-c]quinoline-1-propanamine]
antitumour activity / improvement versus control (intratumoral treatment): potential minor improvement in tumour treatment compared to the control
averaged slope coefficient for the tumour growth plots (tumour growth rate) (mouse, in vivo): positive
mice recovered from the tumour (six mice per group, 3 intratumoral injections 7 days apart): two out of six mice recovered
